How the values were obtained:
[1] = system: participants with WD
Protocol: Incremental dose increases are permitted, but not required, up to a maximum of 60 mg/day.
In summary, the maximum daily dose permitted in this study (Study 302) has been set as […].

[2] = in vivo
[3] = system: patients with WD; settings: cited from earlier work
[4] = compared with other treatments; cited from earlier work

For Bis-choline tetrathiomolybdate [BC-TTM], the “copper mobilization from tissue to blood compared with SoC, as measured by daily mean dNCC AUEC0-48 weeks” value ([1]; 48-week Primary Evaluation Period, overall mean daily dose 15.6 mg) was “approximately 3 fold”, the “participants with Grade 2 ALT elevations during treatment” value ([1]; in vivo) was “approximately 15%” and the “effect of age, sex or body weight on PK” value [2] was “not significant covariates”. For the same substance, the “reduction of mean serum non-ceruloplasmin-bound Cu (NCC) compared with baseline” value ([3]; Week 24, 28 patients with WD, monotherapy) was 72%, the “most frequently reported drug-related AEs” value ([3]; human, in vivo) was “changes in hematological parameters, fatigue, sulphur eructations, and other gastrointestinal symptoms” and the “paradoxical neurological worsening upon treatment initiation” value ([3]; human, in vivo) was “No paradoxical neurological worsening was observed”. For the same substance, the “patients with reversible liver function test elevations” value ([3]; human, in vivo) was 39%, the “severity of most reported adverse events” value ([3]; human, in vivo) was “mild (Grade 1) to moderate (Grade 2)” and the tolerability of treatment ([3]; human, in vivo) was “generally well-tolerated”. The “binding affinity to copper” value [4] was “greater binding affinity to copper compared with other treatments”.

— patent US20240342127A1, “METHODS OF TREATING COPPER METABOLISM-ASSOCIATED DISEASES OR DISORDERS” (Alexion Pharmaceuticals, Inc., priority 2021, published 2024)
